Starred links: 1 amine or outer side, 2 acyl side, 3 side chain; linkers in the order of their positions; H or OH if unused. Non-standard residues stand in square brackets, D forms with d. Residues, ends and D or L forms follow the SMILES beside them. *: point of attachment. Ala(1-Me-3-pyridinium) = C[n+]1cccc(C[C@H](N)C(=O)O)c1; dPhe(2,4-Cl2) = N[C@H](Cc1ccc(Cl)cc1Cl)C(=O)O; PEG8 = NCCOCCOCCOCCOCCOCCOCCOCCOCCC(=O)O; Ala(2-furyl) = N[C@@H](Cc1ccco1)C(=O)O; azaPhe = O=C(N(Cc1ccccc1)N[*:1])[*:2]; Arg(Me) = CNC(=N)NCCC[C@H](N)C(=O)O; Palmitoyl = CCCCCCCCCCCCCCCC(=O)*; Hyp = O=C(O)[C@@H]1C[C@@H](O)CN1; 2Thi = N[C@@H](Cc1cccs1)C(=O)O; AllylGly = C=CC[C@H](N)C(=O)O; Pip = O=C(O)[C@@H]1CCCCN1; Ac6c = NC1(C(=O)O)CCCCC1; Aze = O=C(O)[C@@H]1CCN1; azaGly = NNC(=O)O
Target: T1, human kiss1 receptor (GPR54) (Homo sapiens, UniProt Q969F8)
T1 construct: host or cells: NFAT-bla CHO-K1 cells (Chinese hamster ovary), purchased recombinant cell line
Experiment: Kiss1 receptor (GPR54) binding activity of agonists, FRET detection in NFAT-bla CHO-K1 cells
Assay type: cell-based
Settings: GPR54; measured according to the method of effect Embodiment 1; preliminary data; read-out: Preliminary measurement data (GPR54) EC50

T1 sequence (Q969F8 whole entry): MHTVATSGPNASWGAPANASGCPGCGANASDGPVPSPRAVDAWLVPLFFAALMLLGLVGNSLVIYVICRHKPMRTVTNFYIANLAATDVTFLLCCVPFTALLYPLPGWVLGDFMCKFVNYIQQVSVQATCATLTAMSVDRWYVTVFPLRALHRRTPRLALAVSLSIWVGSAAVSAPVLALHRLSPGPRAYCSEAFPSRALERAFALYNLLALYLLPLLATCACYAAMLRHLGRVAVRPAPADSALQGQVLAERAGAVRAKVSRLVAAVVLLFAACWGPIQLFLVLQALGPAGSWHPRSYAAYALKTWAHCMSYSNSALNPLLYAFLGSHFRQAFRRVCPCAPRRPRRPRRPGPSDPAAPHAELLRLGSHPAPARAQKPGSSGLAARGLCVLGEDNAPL

Compound	EC50 [nM]
CNC(=N)NCCC[C@H](NC(=O)[C@H](CC(C)C)NC(=O)[C@@H]1CCN1C(=O)[C@H](Cc1ccccc1)NC(=O)[C@H](Cc1ccco1)NC(=O)[C@H](CC(N)=O)NC(=O)[C@H](Cc1cccs1)NC(=O)[C@@H](Cc1ccc(O)cc1)NC(C)=O)C(=O)N[C@@H](Cc1c[nH]c2ccccc12)C(N)=O [YA-204, Ac-(D-Tyr)-Thi-Asn-2Fua-Phe-Aze-Leu-Arg(Me)-Trp-NH2] (Ac-[dY][2Thi]N[Ala(2-furyl)]F[Aze]L[Arg(Me)]W-NH2)	8.72
CNC(=N)NCCC[C@H](NC(=O)[C@H](CC(C)C)NC(=O)NNC(=O)[C@H](Cc1ccccc1)NC(=O)[C@@H](NC(=O)[C@H](CC(N)=O)NC(=O)[C@@H]1C[C@@H](O)CN1C(=O)[C@H](Cc1ccc[n+](C)c1)NC(C)=O)[C@@H](C)O)C(=O)N[C@@H](Cc1c[nH]c2ccccc12)C(N)=O [YA-239, Ac-[(S)-3-(2-amino-2-carboxyethyl)-1-methylpyridinium]-Hyp-Asn-Thr-Phe-azaGly-Leu-Arg(Me)-Trp-NH2] (Ac-[Ala(1-Me-3-pyridinium)][Hyp]NTF[azaGly]L[Arg(Me)]W-NH2)	1

Other lines, results leading:

EC50 [nM]	Compound
0.006	C=CC[C@H](NC(=O)[C@H](Cc1ccccc1)NC(=O)[C@@H](NC(=O)[C@H](CC(N)=O)NC(=O)[C@@H]1C[C@@H](O)CN1C(=O)[C@@H](Cc1ccc(O)cc1)NC(=O)CCOCCOCCOCCOCCOCCOCCOCCOCCNC(=O)CCCCCCCCCCCCCCC)[C@@H](C)O)C(=O)N[C@@H](CC(C)C)C(=O)N[C@@H](CCCNC(=N)NC)C(=O)N[C@@H](Cc1c[nH]c2ccccc12)C(N)=O [YA-360, Palm-PEG8-Gly-Gly-(D-Tyr)-Hyp-Asn-Thr-Phe-A1g-Leu-Arg(Me)-Trp-NH2] ({Palmitoyl-PEG8}-[dY][Hyp]NTF[AllylGly]L[Arg(Me)]W-NH2)
0.041	CNC(=N)NCCC[C@H](NC(=O)[C@H](CC(C)C)NC(=O)NNC(=O)[C@H](Cc1ccccc1)NC(=O)C1(NC(=O)[C@H](CC(N)=O)NC(=O)[C@@H]2C[C@@H](O)CN2C(=O)[C@@H](Cc2ccc(O)cc2)NC(C)=O)CCCCC1)C(=O)N[C@@H](Cc1c[nH]c2ccccc12)C(N)=O [YA-387, Ac-(D-Tyr)-Hyp-Asn-A6c-Phe-azaGly-Leu-Arg(Me)-Trp-NH2] (Ac-[dY][Hyp]N[Ac6c]F[azaGly]L[Arg(Me)]W-NH2)

Same assay, conditions: Preliminary measurement data (GPR54) EC50, nM), GPR54; measured according to the method of effect Embodiment 1; preliminary data

Compound	EC50 [nM]
CNC(=N)NCCC[C@H](NC(=O)[C@H](CC(C)C)NC(=O)CNC(=O)N(Cc1ccccc1)NC(=O)[C@@H](NC(=O)[C@H](CC(N)=O)NC(=O)[C@@H]1CCCCN1C(=O)[C@@H](Cc1ccc(Cl)cc1Cl)NC(C)=O)[C@@H](C)O)C(=O)N[C@@H](Cc1c[nH]c2ccccc12)C(N)=O [YA-241, Ac-[D-Phe(2,4-diCl)]—(S-Pip)-Asn-Thr-azaPhe-Gly-Leu-Arg(Me)-Trp-NH2] (Ac-[dPhe(2,4-Cl2)][Pip]NT[azaPhe]GL[Arg(Me)]W-NH2)	0.93

Same assay, conditions: human kiss1 receptor (GPR54), NFAT-bla CHO-K1 cells, FRET; preliminary data; method of effect Embodiment 1; read-out: Preliminary measurement data (GPR54) EC50

EC50 [nM]	Compound
26	CNC(=N)NCCC[C@H](NC(=O)[C@H](CC(C)C)NC(=O)[C@@H]1C[C@@H](O)CN1C(=O)[C@H](Cc1ccccc1)NC(=O)[C@@H](NC(=O)[C@H](CC(N)=O)NC(=O)C1(NC(=O)[C@@H](Cc2ccc(O)cc2)NC(C)=O)CCCCC1)[C@@H](C)O)C(=O)N[C@@H](Cc1c[nH]c2ccccc12)C(N)=O [YA-245, Ac-(D-Tyr)-A6c-Asn-Thr-Phe-Hyp-Leu-Arg(Me)-Trp-NH2] (Ac-[dY][Ac6c]NTF[Hyp]L[Arg(Me)]W-NH2)

Test system: not listed separately
Experiment: Plasma stability, LC-MS/MS
Assay type: in vitro ADME
Settings: rat plasma, 37° C., final concentration 500 ng/ml, time points 0 minutes, 1, 2 and 4 hours; calculated half-life; read-out: Rat plasma (T½ (h)) (converted)
Experimental: Effect Embodiment 2 Experimental Data on Plasma Stability of Some Compounds
1. Preparation of 50 mM Phosphate Buffer:
The 5.750 g Na2HPO4, 1.141 g NaH2PO4. and 4.095 g NaCl (Shanghai Titan) weighed was dissolved in 1000 mL ultrapure water and the pH was adjusted to 7.4 to give 50 mM phosphate buffer containing 70 mM NaCl. The prepared phosphoric acid buffer solution was stored in the refrigerator at 4° C. and was valid for one week.
2. Preparation of compound stock solution:
1). 5 mg/mL of test compound: 5 mg of compound was weighted and dissolved in 1 mL of DMSO.
2). 20 mM control: 2.728 mg of Fuka was dissolved in 0.5 mL of DMSO. 3.878 mg of benzalkonium bromide was dissolved in 0.5 mL of DMSO (Amresco).
3. Preparation of experimental plasma:
The frozen plasma (human: Shanghai wise chemistry; Rats and mice: Shanghai Sciple-Bikai; Dogs and monkeys: Suzhou Xishan Zhongke) were taken out of the −80° C. refrigerator, immediately placed in a 37° C. water bath, slightly shaken to melt it, then the thawed plasma was poured into a centrifuge tube, centrifuged at 3000 rpm for 8 min, and the supernatant was taken for experiments. The pH value of plasma was detected by a pH Meter & Sensor (METTLER TOLEDO). Only plasma with a pH value between 7.4 and 8 was used in the experiment. The plasma was placed on an ice bath for later use.
4. Preparation of administration solution:
1). 125 µg/ml test compound solution: 5 μL of 5 mg/mL test compound (see step 2) was added into 195 μL DMSO; 500 μM control solution: 20 mM control stock solution (see step 2) was added to 195 μL DMSO.
2). 0.5% BSA phosphate buffer solution: 0.05 g BSA was added to 10 mL phosphate buffer solution (see step 1);
3). 5 µg/ml of test compound administration solution: 40 μL of 125 μg/mL of test compound solution was added into 960 μL 0.5% BSA phosphate buffer solution, stirred and mixed evenly, and the administration solution was preheated in a 37° C. water bath for 5 minutes.
20 μM reference substance administration solution: 40 μL of 500 μM reference substance administration solution was added into 960 μL 0.5% BSA phosphate buffer solution, stirred and mixed evenly, and the administration solution was preheated in a 37° C. water bath for 5 minutes.
5. 10 μL of 5 μg/mL of the test compound and 20 μM of the control substance administration solution were respectively added to the wells set at different time points (0 minutes, 1 hour, 2 hours and 4 hours) on the 96-well plate, and the number of duplicate samples was 3.
6. 500 μL of ACN (IS) containing 5% FA was added to the well set at 0 minute hour, then 90 μL of plasma was added, after mixing, sealing film was pasted and placed at 4° C. (number of duplicate samples was 3).
7. 90 μL of plasma was added to the wells with set time points of 1 hour, 2 hours and 4 hours respectively, the number of duplicate samples was 3, and timing was started (the final concentration of the test compound was 500 ng/ml; The control was 2 μM).
9. All samples (0 minutes, 1 hour, 2 hours and 4 hours) at different time points on a 96-well plate were shaken for 10 minutes at 600 rpm/min on an oscillator (MTS 2/4, IKA), and then the samples were centrifuged for 15 minutes at 5594×g in a centrifuge (Multifuge×3R, thermo Fisher).
10. 150 μL of supernatant was taken from the centrifuged sample and sent to LC-MS/MS for analysis (conventional polypeptide LC-MS/MS analysis method).

half-life at 500 ng/ml [h]	Compound
79.9	C=CC[C@H](NC(=O)[C@H](Cc1ccccc1)NC(=O)[C@@H](NC(=O)[C@H](CC(N)=O)NC(=O)[C@@H]1C[C@@H](O)CN1C(=O)[C@@H](Cc1ccc(O)cc1)NC(=O)CCOCCOCCOCCOCCOCCOCCOCCOCCNC(=O)CCCCCCCCCCCCCCC)[C@@H](C)O)C(=O)N[C@@H](CC(C)C)C(=O)N[C@@H](CCCNC(=N)NC)C(=O)N[C@@H](Cc1c[nH]c2ccccc12)C(N)=O [YA-360, Palm-PEG8-Gly-Gly-(D-Tyr)-Hyp-Asn-Thr-Phe-A1g-Leu-Arg(Me)-Trp-NH2] ({Palmitoyl-PEG8}-[dY][Hyp]NTF[AllylGly]L[Arg(Me)]W-NH2)

Reference: patent US11427615B2, “Peptide compound and application thereof, and composition containing peptide compound” (XDCEXPLORER (SHANGHAI) CO., LTD., priority 2017, dated 2022)
